For seven molecules, IC50, inhibition and Activity results are on record in ChEMBL document CHEMBL3407468, “Novel 5-substituted pyrrolo[2,3-d]pyrimidines as dual inhibitors of glycinamide ribonucleotide formyltransferase and 5-aminoimidazole-4-carboxamide ribonucleotide formyltransferase and as potential antitumor agents” (J Med Chem, 2015).

One may read the IC50 as the point on the concentration scale where inhibition reaches its midpoint.

For one assay, the system named is R2. Kind of assay: Cytotoxicity against RFC-deficient Chinese hamster R2 cells assessed as growth inhibition after 96 hrs by CellTiter-Blue assay. In kind it is cell-based. To be noted: Cricetulus griseus, R2, 96 h.
Assay [1] can be described thus: Cytotoxicity against PCFT-deficient Chinese hamster R2(VC) cells assessed as growth inhibition after 96 hrs by CellTiter-Blue assay. The format is cell-based. To be noted: Cricetulus griseus. For orientation: Resazurin is reduced to fluorescent resorufin, in cell work by metabolically active cells.
In assay [2] the test system is KB. As to the kind of experiment: Antiproliferative activity against human KB cells expressing RFC/FRalpha/PCFT after 96 hrs by CellTiter-Blue assay. The format is functional, cell-based.
Assay [3] has as its target Bifunctional purine biosynthesis protein ATIC (Homo sapiens) (UniProt P31939). Kind of assay: Inhibition of AICARFTase in human KB cells expressing RFC/FRalpha/PCFT assessed as cell growth inhibition at 1 to 1000 nM after 96 hrs by CellTiter-Blue assay in presence of 320 uM AICA. In kind it is cell-based.
The target of assay [4] is T1, GAR transformylase/AICAR transformylase (Homo sapiens) (UniProt P31939+P22102). To be noted: KB, at 1 to 1000 nM.
T1 sequence (P31939 whole entry, looked up, one chain of several): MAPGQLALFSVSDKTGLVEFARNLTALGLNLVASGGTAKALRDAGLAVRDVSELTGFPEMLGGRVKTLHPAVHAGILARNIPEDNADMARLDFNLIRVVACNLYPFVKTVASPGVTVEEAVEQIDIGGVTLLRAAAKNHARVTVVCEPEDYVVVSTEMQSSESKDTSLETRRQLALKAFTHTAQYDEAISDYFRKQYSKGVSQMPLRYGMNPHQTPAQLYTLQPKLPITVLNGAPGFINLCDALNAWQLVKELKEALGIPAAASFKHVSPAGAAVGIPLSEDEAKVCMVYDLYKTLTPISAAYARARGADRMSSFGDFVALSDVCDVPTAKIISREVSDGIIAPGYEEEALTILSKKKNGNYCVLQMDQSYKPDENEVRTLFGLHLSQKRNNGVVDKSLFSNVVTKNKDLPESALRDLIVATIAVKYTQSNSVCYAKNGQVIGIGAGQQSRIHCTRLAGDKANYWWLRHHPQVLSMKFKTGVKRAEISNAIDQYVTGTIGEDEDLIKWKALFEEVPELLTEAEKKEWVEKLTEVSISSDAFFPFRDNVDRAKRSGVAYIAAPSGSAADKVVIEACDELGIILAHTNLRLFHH
Description: Inhibition of GARFTase/AICARFTase in human KB cells expressing RFC/FRalpha/PCFT assessed as cell growth inhibition at 1 to 1000 nM after 96 hrs by CellTiter-Blue assay in presence of 60 uM adenosine
Assay [5] has as its target T1, GAR transformylase/AICAR transformylase (Homo sapiens). To be noted: KB, at 1 to 1000 nM. This is another data set of the same source.
Description: Inhibition of GARFTase/AICARFTase in human KB cells expressing RFC/FRalpha/PCFT assessed as cell growth inhibition at 1 to 1000 nM after 96 hrs by CellTiter-Blue assay in presence of 10 uM thymidine
Assay [6] has as its system KB. Kind of assay: Antiproliferative activity against human KB cells expressing RFC/FRalpha/PCFT after 96 hrs by CellTiter-Blue assay in presence of 200 nM folic acid. In kind it is functional, cell-based.
The target in assay [7] is T2, Trifunctional purine biosynthetic protein adenosine-3 (Homo sapiens, UniProt P22102).
T2 sequence (P22102 whole entry): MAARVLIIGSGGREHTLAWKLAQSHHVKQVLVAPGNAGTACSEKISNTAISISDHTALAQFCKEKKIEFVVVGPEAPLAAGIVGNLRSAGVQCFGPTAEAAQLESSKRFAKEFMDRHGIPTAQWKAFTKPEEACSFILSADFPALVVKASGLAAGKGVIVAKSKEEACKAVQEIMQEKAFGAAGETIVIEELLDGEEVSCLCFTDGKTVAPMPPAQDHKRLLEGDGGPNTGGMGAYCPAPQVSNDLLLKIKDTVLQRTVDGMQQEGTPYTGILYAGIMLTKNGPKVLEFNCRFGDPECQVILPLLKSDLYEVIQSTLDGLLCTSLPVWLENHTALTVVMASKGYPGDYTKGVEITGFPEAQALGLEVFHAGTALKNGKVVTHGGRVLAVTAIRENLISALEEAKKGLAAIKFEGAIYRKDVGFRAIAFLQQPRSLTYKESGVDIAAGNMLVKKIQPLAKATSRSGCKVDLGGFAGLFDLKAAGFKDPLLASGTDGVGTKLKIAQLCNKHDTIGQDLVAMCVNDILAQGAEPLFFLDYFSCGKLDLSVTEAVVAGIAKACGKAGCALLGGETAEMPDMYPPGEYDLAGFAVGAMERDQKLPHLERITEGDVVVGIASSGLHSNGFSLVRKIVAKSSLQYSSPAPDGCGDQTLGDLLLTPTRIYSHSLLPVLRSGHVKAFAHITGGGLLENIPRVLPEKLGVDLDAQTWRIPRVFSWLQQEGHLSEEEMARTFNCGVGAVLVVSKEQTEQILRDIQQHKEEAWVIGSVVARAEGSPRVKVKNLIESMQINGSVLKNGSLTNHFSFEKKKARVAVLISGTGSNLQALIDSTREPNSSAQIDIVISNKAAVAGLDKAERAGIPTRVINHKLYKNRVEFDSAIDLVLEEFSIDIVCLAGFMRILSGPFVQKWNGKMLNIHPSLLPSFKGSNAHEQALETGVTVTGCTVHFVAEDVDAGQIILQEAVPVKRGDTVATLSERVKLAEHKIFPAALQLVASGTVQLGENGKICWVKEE
As to the kind of experiment: Inhibition of GARFTase in human KB cells expressing RFC/FRalpha/PCFT assessed as incorporation of [U-14C]-glycine into [14C]-formyl glycinamide ribonucleotide incubated for 1 hr followed by [U-14C]-glycine addition measured after 16 hrs. The format is cell-based.

Each structure is given as a SMILES string. The source made the active and inactive calls. The rule behind the calls is not given here.

Sequence of Bifunctional purine biosynthesis protein ATIC (Homo sapiens) (P31939 whole entry, looked up): as the sequence (P31939 whole entry, looked up, one chain of several) above

As to `Nc1nc2[nH]cc(CCc3ccc(C(=O)N[C@@H](CCC(=O)O)C(=O)O)s3)c2c(=O)[nH]1`, the IC50 is over 1000 nM with R2, over 1000 nM in assay [1] and 875 nM in the assay on KB [2].

Consider `Nc1nc2[nH]cc(CCCc3ccc(C(=O)N[C@@H](CCC(=O)O)C(=O)O)s3)c2c(=O)[nH]1`, for which the IC50 with R2 is over 1000 nM; in assay [1], over 1000 nM; with KB [2], 211 nM. For the same molecule, the inhibition result in assay [3] and in assay [5] was “Active” throughout. Moreover, in assay [4], the inhibition result was “inactive”.

With `Nc1nc2[nH]cc(CCCCc3ccc(C(=O)N[C@@H](CCC(=O)O)C(=O)O)s3)c2c(=O)[nH]1`, the IC50 in the assay on R2 is over 1000 nM; in assay [1], over 1000 nM; in the assay on KB [2], 66 nM; in assay [7] it was 61 nM. Further, the outcome in the assay with KB [6] was inactive. Also, the inhibition entry in assay [3] and in assay [5] was “Active” each time. In addition, the inhibition entry in assay [4] is “inactive”.

Consider `Nc1nc2[nH]c(CCCCc3ccc(C(=O)N[C@@H](CCC(=O)O)C(=O)O)s3)cc2c(=O)[nH]1`, for which the IC50 is over 1000 nM in the assay on R2, over 1000 nM in assay [1] and 3.13 nM in assay [7]. Besides, the inhibition result in assay [3] is “inactive”.

For `Nc1nc2[nH]cc(CCCCCc3ccc(C(=O)N[C@@H](CCC(=O)O)C(=O)O)s3)c2c(=O)[nH]1`, the IC50 with R2 was over 1000 nM; in assay [1], over 1000 nM; with KB [2] it was 41.7 nM. In the assay with KB [6], the result was inactive. The inhibition entry in assay [3] and in assay [4] was “inactive” each time. Also, in assay [5], the inhibition result was “Active”.

`Nc1nc2[nH]cc(Cc3ccc(C(=O)N[C@@H](CCC(=O)O)C(=O)O)s3)c2c(=O)[nH]1`: the IC50 (with R2; in assay [1]; in the assay with KB [2]) was over 1000 nM in each case.

As to `Nc1nc2[nH]cc(CCCCCCc3ccc(C(=O)N[C@@H](CCC(=O)O)C(=O)O)s3)c2c(=O)[nH]1`, the half-maximal inhibitory concentration (IC50) (with R2; in assay [1]; in the assay on KB [2]) was over 1000 nM in each case.
